According to patent US20170247335A1, “FLUORINATED PYRIDAZIN-3-ONES FOR THE USE THEREOF IN THE TREATMENT OF LUNG DISEASES” (UNIVERSITE DE REIMS CHAMPAGNE-ARDENNE, priority 2014, published 2017):

Experiments:
Assay type in all cases: biochemical
PDE1 = PDE1 enzyme inhibition, same colorimetric test; settings: at a concentration of 50 μM of compound
Procedure: (§1) In order to evaluate the action of the compounds (Ic), (Ig) and (Ii) according to the invention, the activity of different sub-types of phosphodiesterases, either of type 4 or not, was tested in vitro by using a kit adapted to the recombinant isoforms of human phosphodiesterases PDE4B2 and PDE4D coded by Escherichia coli. The activity of the PDE1 and PDE10 enzymes was also monitored.
(§2) The principle of the test is based on the cleavage of AMPc by the enzymes phosphodiesterases. The nucleotide-5′ which is sorted out during the reaction is itself cleaved by an enzyme 5′-nucleotidase into a nucleoside and a phosphate, the latter being quantified by using the reagent Biomol Green™.
(§3) The PDE enzymes are incubated on microplates in the presence of AMPc, 5′-nucleotidase, in the presence of an inhibitor, more particularly corresponding to the compound (Ic), (Ig) or (Ii) according to the invention, or in the absence of any inhibitor (control), and this for a period of the order of 60 mins.
(§4) The reaction is stopped by adding an amount of 100 microliters of the reagent Biomol Green™ and the plate is incubated for further 30 mins in order to allow development of the colour before reading the absorbance by means of a micro-plate reader.
The study of the inhibition of the PDE enzymes by the compound (Ic), (Ig) or (Ii) according to the invention was carried out by testing […] different concentrations (500 μM, 50 μM, 5 μM and 0.5 μM) of said compounds (Ic), (Ig) or (Ii).

[1] = system: PDE4 (recombinant human phosphodiesterases PDE4B2 and PDE4D); assay: PDE4 enzyme inhibition, colorimetric cAMP cleavage test (5'-nucleotidase, Biomol Green); settings: for IC50: average of three independent determinations, non-linear regression, 60 min incubation, 2% DMSO, read-out: CI50 (inhibitory concentration 50)
Procedure: The activity of the PDE1 and PDE10 enzymes was also monitored.
as §2, §4
The CI50s which were calculated represent the average value of three determinations which were achieved independently of each other.
A non-specific inhibitor of the PDE enzymes, 3-isobutyl-1-methylxanthin (IBMX) corresponds to the control.

PDE10 = PDE10 (Homo sapiens, UniProt Q9Y233); assay: PDE10 enzyme inhibition, same colorimetric test; settings: read-out: percentage of inhibition towards PDE10
Sequence of PDE10 (Q9Y233 whole entry): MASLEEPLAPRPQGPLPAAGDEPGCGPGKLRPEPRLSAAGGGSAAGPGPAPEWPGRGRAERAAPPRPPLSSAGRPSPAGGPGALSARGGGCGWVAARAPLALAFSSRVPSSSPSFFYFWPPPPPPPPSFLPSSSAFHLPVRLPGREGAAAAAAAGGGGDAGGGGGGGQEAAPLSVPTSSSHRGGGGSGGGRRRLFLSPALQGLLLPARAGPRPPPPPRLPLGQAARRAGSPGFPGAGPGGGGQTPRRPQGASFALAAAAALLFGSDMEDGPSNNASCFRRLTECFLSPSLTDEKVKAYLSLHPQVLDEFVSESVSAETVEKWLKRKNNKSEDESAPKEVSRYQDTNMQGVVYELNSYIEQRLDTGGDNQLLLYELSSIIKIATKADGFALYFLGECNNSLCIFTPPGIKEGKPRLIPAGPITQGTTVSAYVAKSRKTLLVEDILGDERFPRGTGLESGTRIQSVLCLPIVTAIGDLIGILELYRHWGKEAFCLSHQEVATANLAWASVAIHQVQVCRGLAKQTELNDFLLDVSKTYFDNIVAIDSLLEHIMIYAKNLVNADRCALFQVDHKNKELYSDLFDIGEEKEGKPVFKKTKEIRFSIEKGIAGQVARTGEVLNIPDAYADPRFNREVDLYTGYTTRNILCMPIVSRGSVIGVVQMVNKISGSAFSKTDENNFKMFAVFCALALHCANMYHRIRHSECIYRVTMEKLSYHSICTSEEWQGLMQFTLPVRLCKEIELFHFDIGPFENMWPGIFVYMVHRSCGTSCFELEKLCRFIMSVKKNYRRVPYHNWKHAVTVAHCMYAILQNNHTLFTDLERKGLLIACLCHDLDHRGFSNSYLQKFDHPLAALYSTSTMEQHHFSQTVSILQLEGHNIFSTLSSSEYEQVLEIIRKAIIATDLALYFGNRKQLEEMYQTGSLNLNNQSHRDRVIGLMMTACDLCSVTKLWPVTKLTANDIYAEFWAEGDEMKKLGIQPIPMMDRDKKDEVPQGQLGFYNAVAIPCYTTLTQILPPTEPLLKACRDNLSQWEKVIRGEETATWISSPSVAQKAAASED
Procedure: as §1, §2, §3
The reaction is stopped by adding an amount of 100 microliters of the reagent Biomol Green™ and the plate is incubated for further 30 mins in order to allow development of the colour before reading the absorbance by means of a micro-plate reader. […]

[2] = at a concentration of 50 μM of compound

Row | Structure (SMILES) | inhibition of PDE1 (PDE1) [%] | inhibition percentage of PDE4 [1, 2] [%] | IC50 [1] [µM] | inhibition at 50 µM (PDE10) [%] | inhibition percentage of PDE4 ([1]; at a 5 μM concentration of compound) [%]
1 | COc1ccc(-c2cc(C(F)(F)F)c(=O)[nH]n2)cc1OC [compound (Ic), 4-(trifluoromethyl)-6-(3′,4′-dimethoxyphenyl)pyridazin-3(2H)-one] | 0 | 74 | 8.1 |  | 
2 | Cc1ccc(-c2cc(C(F)(F)F)c(=O)n(-c3ccccc3)n2)cc1 [compound (Ig), 4-(trifluoromethyl)-2-phenyl-6-(p-tolyl)pyridazin-3(2H)-one] | 0 | 45 | 15 |  | 
3 | COc1cc(-c2cc(C(F)(F)F)c(=O)[nH]n2)ccc1OC(F)F [compound (Ii), 6-(4′-(difluoromethoxy)-3′-methoxy-phenyl)-4-(trifluoromethyl)pyridazin-3(2H)-one] | 0 |  | 0.25 | 9 | 56
